From patent publication US20260130933A1, “PHARMACEUTICAL COMPOSITION FOR PREVENTION OR TREATMENT OF NEPHROPATHY AND/OR DIABETES MELLITUS, COMPRISING ENAVOGLIFLOZIN” (DAEWOONG PHARMACEUTICAL CO., LTD., priority 2022, published 2026)

Experiment: Example 1: phase 3 trial, enavogliflozin 0.3 mg once a day as monotherapy vs placebo for 24 weeks in patients with type 2 diabetes (HbA1c, FPG, C-peptide, body weight, lipids, blood pressure, HOMA, UACR, UGCR, adiponectin, leptin, safety)
Format: in vivo, human
Conditions: for Change from baseline in HOMA-IR, ANCOVA LS mean difference / Change from baseline in HOMA-β, ANCOVA LS mean difference / Change from baseline in UACR, ANCOVA LS mean difference / Change from baseline in UGCR, ANCOVA LS mean difference / Change from baseline in adiponectin, ANCOVA LS mean difference / Change from baseline in leptin, ANCOVA LS mean difference: 0.3 mg vs placebo
Method: When a subject voluntarily gave written consent to participate in this clinical trial, a screening test was conducted. […] However, when the administration of a hypoglycemic agent was interrupted before the clinical trial Visit 1 (screening), at least an 8-week washout period, including the discontinuation period, was required, and during this period, a stable diet and exercise program was followed. Naïve patients were screened without a separate washout period, and the criteria for naïve patients were defined as patients who had not been administered hypoglycemic agents within 24 weeks prior to the date of obtaining written consent. […] In addition, they were instructed to maintain regular exercise and dietary control starting from 8 weeks prior to screening without changing their daily life patterns during the clinical trial period.

[1] = Week 18, LOCF, full analysis set, 0.3 mg
[2] = Week 18, LOCF, full analysis set
[3] = Week 24, LOCF, full analysis set, 0.3 mg
[4] = Week 24, LOCF, full analysis set

## OC[C@H]1O[C@@H](c2cc(Cc3ccc(C4CC4)cc3)c(Cl)c3c2CCO3)[C@H](O)[C@@H](O)[C@@H]1O [Enavogliflozin, (2S,3R,4R,5S,6R)-2-(7-chloro-6 (4-cyclopropylbenzyl)-2,3-dihydrobenzofuran-4-yl)-6-(hydroxymethyl)tetrahydro-2H-pyran-3,4,5-triol]
[1]
  Change from baseline in HOMA-IR, Median: −1.10
  Change from baseline in HOMA-β, ANCOVA LS mean (SE): 28.64
  Change from baseline in HOMA-β, Mean (SD): 23.65
  Change from baseline in HOMA-β, Median: 5.95
  Change from baseline in UACR, ANCOVA LS mean (SE): -5.53 g/kg
  Change from baseline in UACR, Mean (SD): -8720 mg/kg
  Change from baseline in UACR, Median: -0.75 g/kg
  Change from baseline in UGCR, ANCOVA LS mean (SE): 51.70 mg/mg
  Change from baseline in UGCR, Mean (SD): 50.96 mg/mg
  Change from baseline in UGCR, Median: 54.29 mg/mg
  Change from baseline in adiponectin, ANCOVA LS mean (SE): 0.97 µg/mL
  Change from baseline in adiponectin, Mean (SD): 0.83 µg/mL
  Change from baseline in adiponectin, Median: 0.61 µg/mL
  Change from baseline in leptin, ANCOVA LS mean (SE): -2.70 ng/mL
  Change from baseline in leptin, Mean (SD): -2.20 ng/mL
  Change from baseline in leptin, Median: -1.21 ng/mL
  HOMA-IR, Mean (SD): 1.99
  HOMA-IR, Median: 1.51
  HOMA-β, Mean (SD): 70.05
  HOMA-β, Median: 43.85
  Leptin, Mean (SD): 8.96 ng/mL
  Leptin, Median: 6.05 ng/mL
  UACR, Mean (SD): 19480 mg/kg
  UACR, Median: 10.50 g/kg
  UGCR, Mean (SD): 52.38 mg/mg
  UGCR, Median: 54.51 mg/mg
[2]
  Change from baseline in HOMA-IR, ANCOVA LS mean difference: −1.49
  Change from baseline in HOMA-β, ANCOVA LS mean difference: 22.40
  Change from baseline in UACR, ANCOVA LS mean difference: -13.39 g/kg
  Change from baseline in UGCR, ANCOVA LS mean difference: 47.66 mg/mg
  Change from baseline in adiponectin, ANCOVA LS mean difference: 1.04 µg/mL
  Change from baseline in leptin, ANCOVA LS mean difference: -2.36 ng/mL
[3]
  Adiponectin, Mean (SD): 9.07 µg/mL
  Adiponectin, Median: 7.57 µg/mL
  Change from baseline in HOMA-IR, ANCOVA LS mean (SE): −1.57
  Change from baseline in HOMA-IR, Mean (SD): −1.52
  Change from baseline in HOMA-IR, Median: −0.99
  Change from baseline in HOMA-β, ANCOVA LS mean (SE): 7.97
  Change from baseline in HOMA-β, Mean (SD): 8.24
  Change from baseline in HOMA-β, Median: 6.10
  Change from baseline in UACR, ANCOVA LS mean (SE): -4.31 g/kg
  Change from baseline in UACR, Mean (SD): -6750 mg/kg
  Change from baseline in UACR, Median: -0.15 g/kg
  Change from baseline in UGCR, ANCOVA LS mean (SE): 49.76 mg/mg
  Change from baseline in UGCR, Mean (SD): 48.97 mg/mg
  Change from baseline in UGCR, Median: 50.09 mg/mg
  Change from baseline in adiponectin, ANCOVA LS mean (SE): 1.25 µg/mL
  Change from baseline in adiponectin, Mean (SD): 1.28 µg/mL
  Change from baseline in adiponectin, Median: 1.08 µg/mL
  Change from baseline in leptin, ANCOVA LS mean (SE): -2.36 ng/mL
  Change from baseline in leptin, Mean (SD): -2.07 ng/mL
  Change from baseline in leptin, Median: -0.84 ng/mL
  HOMA-IR, Mean (SD): 1.94
  HOMA-IR, Median: 1.58
  HOMA-β, Mean (SD): 54.64
  HOMA-β, Median: 46.65
  Leptin, Mean (SD): 9.09 ng/mL
  Leptin, Median: 6.89 ng/mL
  UACR, Mean (SD): 21440 mg/kg
  UACR, Median: 9.00 g/kg
  UGCR, Mean (SD): 50.40 mg/mg
  UGCR, Median: 50.80 mg/mg
[4]
  Change from baseline in HOMA-IR, ANCOVA LS mean difference: −1.94
  Change from baseline in HOMA-β, ANCOVA LS mean difference: 5.88
  Change from baseline in UACR, ANCOVA LS mean difference: -13.92 g/kg
  Change from baseline in UGCR, ANCOVA LS mean difference: 47.36 mg/mg
  Change from baseline in adiponectin, ANCOVA LS mean difference: 0.98 µg/mL
  Change from baseline in leptin, ANCOVA LS mean difference: -2.99 ng/mL
Week 6
  Body weight, Mean: 66.81 kg
  Diastolic blood pressure, Mean: 73.81 mmHg
  FPG change from baseline, LS mean (SE): −27.78(2.47) mg/dL
  FPG change from baseline, Mean (SD): −25.86(20.19) mg/dL
  FPG, Mean (SD): 115.19(14.55) mg/dL
  HDL-C change from baseline, LS mean: 2.40 mg/dL
  HDL-C change from baseline, Mean: 2.07 mg/dL
  HDL-C, Mean: 53.79 mg/dL
  HbA1c change from baseline, LS mean (SE): −0.67(0.05) % p
  HbA1c change from baseline, Mean (SD): −0.63(0.39) % p
  HbA1c, Mean (SD): 7.01(0.59) %
  LDL-C change from baseline, LS mean: 1.23 mg/dL
  LDL-C change from baseline, Mean: 1.55 mg/dL
  LDL-C, Mean: 96.18 mg/dL
  Subjects achieving HbA1c target of <6.5%: 12(14.81) %
  Subjects achieving HbA1c target of <7%: 40(49.38) %
  Subjects achieving therapeutic glycemic response (HbA1c change >0.5% or HbA1c<7%): 61(75.31) %
  Systolic blood pressure, Mean: 123.32 mmHg
  body weight change from baseline, LS mean: -2.03 kg
  body weight change from baseline, Mean: -2.05 kg
  diastolic blood pressure change from baseline, LS mean: −2.99 mmHg
  diastolic blood pressure change from baseline, Mean: −2.65 mmHg
